We go through 4 compounds from patent US4605515A, “Calcitonin-(1-23)-peptide amide” (Armour Pharmaceutical Company, priority 1984, dated 1986).

Bridge positions count the residues as written; N and C are the ends. Ends that are not written are not given here. Peptide text beside a SMILES is read from it.

The test system of experiment [1] is serum calcium concentration.
Protocol: Rats were divided into four groups of seven animals, and each group was assigned at random to a dose of standard or test solution. Low and high doses were chosen from the linear portion of the dose-response curve. For the salmon calcitonin standard, the values were 0.7 and 2.1 mcg. peptide/100 g. body weight (BW). This dose approximates 3 and 9 MU/100 g. BW. Peptides were given by subcutaneous injection (0.2 ml/100 g. BW) and blood was withdrawn 1 hour later for serum calcium determination. Sera are processed and analyzed within two hours of collection.
For experiment [2] the following is noted: literature values; cited from earlier work.

For the compound `CC(C)C[C@H](NC(=O)[C@H](CCCCN)NC(=O)CNC(=O)[C@H](CC(C)C)NC(=O)[C@@H](NC(=O)[C@@H]1CSSC[C@H](N)C(=O)N[C@@H](CO)C(=O)N[C@@H](CC(N)=O)C(=O)N[C@@H](CC(C)C)C(=O)N[C@@H](CO)C(=O)N[C@@H]([C@@H](C)O)C(=O)N1)C(C)C)C(=O)N[C@@H](CO)C(=O)N[C@@H](CCC(N)=O)C(=O)N[C@@H](CCC(=O)O)C(=O)N[C@@H](CC(C)C)C(=O)N[C@@H](Cc1c[nH]cn1)C(=O)N[C@@H](CCCCN)C(=O)N[C@@H](CC(C)C)C(=O)N[C@@H](CCC(N)=O)C(=O)N[C@H](C(=O)N[C@@H](Cc1ccc(O)cc1)C(=O)N1CCC[C@H]1C(N)=O)[C@@H](C)O` [calcitonin-(1-23)-peptide amide, Calcitonin-(1-23)-peptide amide] (H-CSNLSTCVLGKLSQELHKLQTYP-NH2; disulfide 1-7), the biological potency in experiment [1] (rat, in vivo, sc) was 11.5 IU/mg.
In the case of `CC(C)C[C@H](NC(=O)[C@H](CCCCN)NC(=O)CNC(=O)[C@H](CC(C)C)NC(=O)[C@@H](NC(=O)[C@@H]1CSSC[C@H](N)C(=O)N[C@@H](CO)C(=O)N[C@@H](CC(N)=O)C(=O)N[C@@H](CC(C)C)C(=O)N[C@@H](CO)C(=O)N[C@@H]([C@@H](C)O)C(=O)N1)C(C)C)C(=O)N[C@@H](CO)C(=O)N[C@@H](CCC(N)=O)C(=O)N[C@@H](CCC(=O)O)C(=O)N[C@@H](CC(C)C)C(=O)N[C@@H](Cc1c[nH]cn1)C(=O)N[C@@H](CCCCN)C(=O)N[C@@H](CC(C)C)C(=O)N[C@@H](CCC(N)=O)C(=O)N[C@H](C(=O)N[C@@H](Cc1ccc(O)cc1)C(=O)N1CCC[C@H]1C(=O)N[C@@H](CCCNC(=N)N)C(=O)N[C@H](C(=O)N[C@@H](CC(N)=O)C(=O)N[C@H](C(=O)NCC(=O)N[C@@H](CO)C(=O)NCC(=O)N[C@H](C(=O)N1CCC[C@H]1C(N)=O)[C@@H](C)O)[C@@H](C)O)[C@@H](C)O)[C@@H](C)O` [standard salmon calcitonin, Salmon calcitonin], the “potency of the standard, independently determined” value in experiment [1] (standard salmon calcitonin used, independently determined) is given as “greater than 4,000 IU/mg”.
With “(1,7-α-L-aminosuberic acid) eel calcitonin”, the hypocalcemic potency entry in experiment [2] is listed as “about 3400 Iu/mg”.
For “eel calcitonin (CSNLSTCVLGKLSQELHKLQTYPRTDVGAGTP-NH2; disulfide 1-7; ends not checked; UniProt P01262 1-32, looked up) [synthetic eel calcitonin, synthetic eel calcitonin of Monikawa et al]”, the hypocalcemic potency result in experiment [2] was “around 4300 Iu/mg”.
